Reference: publication PMC9256669, “Monomethyl auristatin antibody and peptide drug conjugates for trimodal cancer chemo-radio-immunotherapy” (Nature Communications, 2022)
“And” between values parts separate entries of the source, which are not always exact repeats. Identical values can stand only once. Non-standard residues stand in square brackets, D forms with d. Residues, ends and D or L forms follow the SMILES beside them. *: point of attachment. Dolaproine = CO[C@@H]([C@@H]1CCCN1)[C@@H](C)C(=O)O; Dil = CC[C@H](C)[C@H](NC)[C@@H](CC(=O)O)OC; X1 = C[C@@H](N*)[C@@H](O)c1ccccc1; NMeV = CN[C@H](C(=O)O)C(C)C

Columns and labels:
A549 = experiment: Cytotoxicity, Alamar Blue assay; assay type: cell-based, human; settings: 72 h drug exposure, one value per biological replicate
Experimental: (§1) Cells were plated in 96-well plates and exposed to a drug concentration range for 72 h. Alamar Blue was added to the cells and allowed to incubate for 2–4 h at 37 °C. Plates were analyzed using a plate reader with fluorescence measured at 560 nm. Fractional survival was normalized to untreated control cell fluorescent values. Drug IC50 was calculated using Prism software (GraphPad, La Jolla, CA). Cell viability, cytotoxicity and apoptosis were also measured by ApoTox-Glo Triplex Assay (Promega).

HCT116 = experiment: Cytotoxicity, Alamar Blue assay; assay type: cell-based, human; settings: 72 h drug exposure, one value per biological replicate
Experimental: as §1

[1] = system: CAL27 parental (WT) tumors; experiment: Orthotopic tongue tumor xenograft therapy; assay type: in vivo, human cells in NOD SCID mice; settings: single 2.5 nmole injection
From the text: (§2) Orthotopic tongue xenograft tumors were established in 6-week-old NOD SCID mice by injecting 150,000 CAL27 parental (WT) or PIK3CA H1047R-expressing cells. […] On the last day of tumor xenograft measurements, mice were euthanized, tongues resected, imaged, and fixed. […] IR was delivered as 2 parallel opposed fields. […]
(§3) Tumor cells Ab/ADC Ab/ADC CDX3379-MMAE
(§4) Supplementary Figure 7: CDX3379-MMAE ADC efficacy in tumor xenografts.
(§5) CAL27 parental (WT) or HER3 resistant (PIK3CA H1047R) tumor xenografts established in murine tongues on day 0. a) On day 7, mice i.v. injected with 2.5 nmoles […]
(§6) On the last day of tumor measurement
(§7) (day 16 for WT, day 14 for PIK3CA H1047R tumors), tongues resected, fixed and sectioned. Tissues stained for Ki-67 (Abcam, ab16667) by IHC and counterstained with hematoxylin. Data is representative of 6 independent tumors per tumor cell line and treatment. b) Mice with orthotopic tongue CAL27 PIK3CA H1047R tumors were […]
(§8) MMAE ADC on day 6 and day 8 (n= 6 tumors/group). On the last day of tumor measurements, tongues were resected, fixed, longitudinally sectioned and H&E stained.
(§9) Source data are provided in Source Data file.
(§10) (also on this page, place not known: CAL27-WT CAL27-Resistant UntreatedCDX3379CDX3379 -MMAE 07142128 volume (mm3) Tumor tipTongue a)On i.v.injected)

[2] = system: CAL27 resistant (PIK3CA H1047R) tumors; experiment: Orthotopic tongue tumor xenograft therapy; assay type: in vivo, human cells in NOD SCID mice; settings: PIK3CA H1047R-expressing CAL27 orthotopic tongue tumors
From the text: as §2, §3, §4, §5, §6, §7, §8, §9, §10

B16 tumors = system: B16 tumors; set-up: species or system C57BL/6 mice; settings: mouse, in vivo
Experimental: At harvest, tumors were isolated, minced, and re-suspended in FBS-free DMEM media supplemented with components of MACs tumor dissociation kit. Tissues were incubated for 15 min at 37 °C and mechanically digested using the gentle MACs Octo dissociator. Tissue suspensions were washed with fresh media and passed through a 100-µm strainer. Samples were split in half for immediate staining or stimulated with the Biolegend Cell Activation Cocktail (with Brefeldin A) for 3 h. Samples were washed with PBS and immediately processed for live/dead cell discrimination using BD LIVE/DEAD™ Fixable Blue Dead Cell Stain Kit. Cells were washed and stained for surface markers for 30 min at 4 °C. Intracellular staining was performed using the eBioscience FOXP3/Transcription Factor Buffer Set from Invitrogen and stained with intracellular antibodies. […] All antibodies were validated by the supplier. All flow cytometry data acquisition was done using BD LSRFortessa and analyzed using FlowJo software. […]
Representative flow cytometry plots to gate immune cells quantitated in Fig. 4a, b, 4d &
Supplementary Fig. 10b, c. b) Quantification of tumor immune cell identified by flow cytometry on […]
(Clone:GB11). In addition, RNA levelsof tumor granzyme-B was analyzed by qPCR. […]

`CC[C@H](C)[C@@H]([C@@H](CC(=O)N1CCC[C@H]1[C@H](OC)[C@@H](C)C(=O)N[C@H](C)[C@@H](O)c1ccccc1)OC)N(C)C(=O)[C@@H](NC(=O)[C@@H](NC)C(C)C)C(C)C` [MMAE, monomethyl auristatin E] (H-[NMeV]V[Dil][Dolaproine]-X1) was tested, and the IC50 (A549) was 559 pM and 513 pM and the IC50 (HCT116) was 343 pM and 431 pM and 548 pM and 1430 pM and 1520 pM and 1350 pM.
For “CDX3379-MMAE: anti-HER3 antibody CDX3379 with 4 MMAE per antibody via MC-VC-PABC linker, labeled with Cy5”, the “tumor growth (tumor volume, Ki-67)” value [1] was “further enhanced” and the tumor growth [2] was “significant growth delay”.
For “cyclo(RGD)fc-MC-HN-peg8-e9-oPLGC(Me)AG-r9-c-(MC-VC-PABC-MMAE)-CONH2 [ACPP-MMAE]”, the “CD8 T cell granzyme B” value (B16 tumors) was “increased CD8 T cell granzyme B at both the transcriptional and protein levels” and the “Immune checkpoint markers: GZMB, RNA” value (B16 tumors) was 3.95 and 3.63.
